Assay results taken from US9113649B2, “Food additive comprising an amidase for detoxifying ochratoxin” (DuPont Nutrition Biosciences ApS, priority 2010, dated 2015).

Target: Aspergillus niger amidase 2 sig (full length 480 aa, intracellular fraction, SEQ ID NO: 1) (Aspergillus niger, UniProt A2R2V4)
Conditions: pH 7
Description: The reaction contained 60 μl mops-NaOH (0.2M, pH7.0), 20 mM CaCl2, 20 mM EDTA, amidase 2 sig (0.46 μg protein) extracted from A. niger cell harboring the amidase gene, 2 μl 25 μg/ml OTA and water to a final volume of 120 μl. The reaction was performed at 37° C. for 30 min and stopped by adding 150 μl acetonitrile containing 0.2% acetic acid. OTA and its product OT-alpha (=ODα) were analyzed on RP-HPLC on C18 column with an injection of 5 μl. Positive control (PC) contained no additives other than the buffer the amidase and OTA. Blank contained only buffer and OTA.

Aspergillus niger amidase 2 sig (full length 480 aa, intracellular fraction, SEQ ID NO: 1), sequence (A2R2V4 other isoform, or with tags, fused parts or gaps): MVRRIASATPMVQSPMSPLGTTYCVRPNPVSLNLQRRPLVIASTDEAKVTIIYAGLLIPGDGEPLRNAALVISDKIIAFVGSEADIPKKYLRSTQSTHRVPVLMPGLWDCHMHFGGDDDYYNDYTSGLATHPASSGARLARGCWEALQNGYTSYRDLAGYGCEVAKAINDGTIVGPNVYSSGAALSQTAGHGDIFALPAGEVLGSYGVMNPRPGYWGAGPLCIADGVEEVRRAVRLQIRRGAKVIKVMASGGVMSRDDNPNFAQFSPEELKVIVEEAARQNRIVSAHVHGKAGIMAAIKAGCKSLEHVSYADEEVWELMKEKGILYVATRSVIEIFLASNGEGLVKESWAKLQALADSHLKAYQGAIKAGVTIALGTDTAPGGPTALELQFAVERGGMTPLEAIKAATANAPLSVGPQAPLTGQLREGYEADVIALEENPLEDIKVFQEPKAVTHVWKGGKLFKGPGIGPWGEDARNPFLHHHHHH

SMILES: O=C(O)CN(CCN(CC(=O)O)CC(=O)O)CC(=O)O [EDTA]
- inhibition of amidase 2 sig (OTA degradation): no inhibition
